Holding throughout (type): functional
Assay [1] concerns Tumor Cell line. Briefly: Compound was evaluated for the growth inhibition of a panel of human tumor cell lines.
Assay [2] deals with Tumor Cell line. Briefly: Mean values over all human tumor cell lines were determined.
Assay [3] has as its system Panel renal (Carcinoma cell lines). Briefly: Compound was evaluated for the growth inhibition of cell cultures derived from human renal cancer tumors.
Assay [4] concerns Lung cancer tumor cell line. Briefly: Compound was evaluated for the growth inhibition of cell cultures derived from human non small cell lung cancer tumors.
For a further assay, the system named is Melanoma tumor cell line. Briefly: Compound was evaluated for the growth inhibition of cell cultures derived from human melanoma tumors.
Another assay deals with Ovarian cancer cell line. Briefly: (§1) Compound was evaluated for the growth inhibition of cell cultures derived from human ovarian cancer tumors.
Assay [5] is filed under the species Homo sapiens. Briefly: Compound was evaluated for the growth inhibition of cell cultures derived from human prostate cancer tumors.
Assay [6] relates to Panel CNS (Carcinoma cell lines). Briefly: Compound was evaluated for the growth inhibition of cell cultures derived from human Cns cancer tumors.
In assay [7] the test system is Panel colon (Carcinoma cell lines). Briefly: Compound was evaluated for the growth inhibition of cell cultures derived from human colon cancer tumors.
In assay [8] the test system is Panel breast (Carcinoma cell lines). Briefly: (§2) Compound was evaluated for the growth inhibition of cell cultures derived from human breast cancer tumors.
The test system of another assay is leukaemia cell line. Briefly: Compound was evaluated for the growth inhibition of cell cultures derived from human leukemia tumors.
For assay [9], the species on record is Homo sapiens. The description is as §1.
The test system of a further assay is OVCAR-5. Briefly: Compound was evaluated for the growth inhibition of OVCAR-5 ovarian cell lines. The note with it: Homo sapiens.
The test system of a further assay is IGROV-1. Briefly: Compound was evaluated for the growth inhibition of […] ovarian cell lines. Conditions: Homo sapiens.
The nature of assay [10]: as §2.
Assay [11] deals with Tumor Cell line. Briefly: Compound was evaluated for the growth inhibition against panel of human tumor cell lines.

The GI50 is the concentration at which growth is held to half of that of the control. Turning to `Cc1cc(C)c(S(=O)(=O)N(CCCN)OCCCN)c(C)c1`, the GI50 in the assay on Tumor Cell line [1] was greater than 100 µM.

Regarding `Cc1c(C)c(S(=O)(=O)N(CCCN)OCCCN)c(C)c2c1OC(C)(C)CC2`, the GI50 was 14 µM with Tumor Cell line [2]; 14.7 µM in [3]; 14.2 µM in assay [4]; 14.8 µM in the assay with Melanoma tumor cell line; 12.6 µM in the assay on Ovarian cancer cell line; 14 µM in the assay listed under Homo sapiens [5]. Besides, the GI50 in assay [6] is 12.9 µM; in assay [7], 13.8 µM; in [8], 15.8 µM; in the assay on leukaemia cell line, 13 µM.

For `Cc1c(C)c(S(=O)(=O)N(CCCCN)OCCCN)c(C)c2c1OC(C)(C)CC2`, the GI50 stood at 19.6 µM in the assay with Tumor Cell line [2]; 20.9 µM in assay [3]; 15.3 µM in [4]; 19.1 µM with Melanoma tumor cell line; 13.5 µM in the assay with Ovarian cancer cell line; 14.5 µM in the assay filed under Homo sapiens [5]. Moreover, the GI50 in assay [6] was determined as 18 µM; in assay [7], 20.3 µM; in assay [8] it was 28.4 µM; with leukaemia cell line, 26.8 µM.

For `Cc1c(C)c(S(=O)(=O)N(CCCCCCN)OCCCN)c(C)c2c1OC(C)(C)CC2`, the GI50 in the assay on Tumor Cell line [2] worked out at 8.5 µM; in assay [3] it was 11.3 µM; in [4], 6.3 µM; in the assay with Melanoma tumor cell line, 10.7 µM; in the assay on Ovarian cancer cell line, 4.7 µM; in the assay listed under Homo sapiens [5], 16.3 µM. The GI50 in assay [6] was determined as 5.6 µM; in assay [7], 7.2 µM; in [8] it was 10.2 µM; with leukaemia cell line, 4.1 µM.

On to `Cc1cc(C)c(S(=O)(=O)N(CCCCN)OCCCN)c(C)c1`, for which the GI50 in the assay on Tumor Cell line [2] amounted to 16.4 µM; in assay [3] it was 18.2 µM; in assay [4] it was 18.5 µM; in the assay with Melanoma tumor cell line it was 18.1 µM; in the assay listed under Homo sapiens [9], 17.2 µM; in the assay filed under Homo sapiens [5], 14.5 µM. Further, the GI50 amounted to 18.1 µM in assay [6], 13.3 µM in [7], 17.8 µM in [8] and 11.8 µM in the assay with leukaemia cell line.

In the case of `Cc1c(C)c(S(=O)(=O)N(CCCCN2C(=O)c3ccccc3C2=O)OCCCN2C(=O)c3ccccc3C2=O)c(C)c2c1OC(C)(C)CC2`, the GI50 worked out at 52.5 µM in the assay on OVCAR-5 and 3.27 µM in the assay with IGROV-1.

As to `Cc1c(C)c(S(=O)(=O)N(CCCCCON)OCCCN)c(C)c2c1OC(C)(C)CC2`, the GI50 with Tumor Cell line [2] worked out at 12.5 µM; in assay [3], 14.3 µM; in [4] it was 13.5 µM; in the assay with Melanoma tumor cell line, 13.7 µM; in the assay listed under Homo sapiens [9] it was 12.4 µM; in the assay filed under Homo sapiens [5], 10.6 µM. Moreover, the GI50 in [6] is 14.9 µM; in assay [7], 12.8 µM; in [10], 13.8 µM; in the assay with leukaemia cell line, 6.3 µM.

`Cc1cc(C)c(S(=O)(=O)N(CCCCCN)OCCCN)c(C)c1`: the GI50 in the assay on Tumor Cell line [2] is 15.2 µM; in [3], 16.1 µM; in [4] it was 16.9 µM; in the assay with Melanoma tumor cell line, 18.2 µM; with Ovarian cancer cell line, 17.9 µM; in the assay filed under Homo sapiens [5] it was 15.7 µM. The GI50 in assay [6] turned out to be 16.9 µM; in [7], 16.2 µM; in assay [8], 20.2 µM; in the assay with leukaemia cell line it was 15.3 µM.

Regarding `Cc1c(C)c(S(=O)(=O)N(CCCN2C(=O)c3ccccc3C2=O)OCCCN2C(=O)c3ccccc3C2=O)c(C)c2c1OC(C)(C)CC2`, the GI50 was 52.5 µM in the assay with OVCAR-5 and 3.27 µM in the assay with IGROV-1.

For `Cc1cc(C)c(S(=O)(=O)N(CCCCCCN)OCCCN)c(C)c1`, the GI50 in the assay with Tumor Cell line [2] turned out to be 18.3 µM; in assay [3] it was 17.5 µM; in assay [4] it was 22.4 µM; with Melanoma tumor cell line, 15.7 µM; with Ovarian cancer cell line it was 18 µM; in the assay filed under Homo sapiens [5] it was 15.4 µM. In addition, the GI50 in assay [6] turned out to be 16.5 µM; in assay [7] it was 16.7 µM; in [8] it was 23 µM; in the assay with leukaemia cell line, 19.5 µM.

Turning to `NCCCNOCCCN`, the GI50 with Tumor Cell line [11] was greater than 100 µM.

For `Cc1c(C)c(S(=O)(=O)N(CCCCCN)OCCCN)c(C)c2c1OC(C)(C)CC2`, the GI50 came out at 11.2 µM in the assay on Tumor Cell line [2]; 16.5 µM in [3]; 11.5 µM in [4]; 10.9 µM with Melanoma tumor cell line; 12.7 µM in the assay with Ovarian cancer cell line; 16.1 µM in the assay filed under Homo sapiens [5]. Also, the GI50 in assay [6] was 9.6 µM; in assay [7], 9.8 µM; in assay [8], 10 µM; with leukaemia cell line, 3.9 µM.

In the case of `Cc1c(C)c(S(=O)(=O)N(CCCCCN2C(=O)c3ccccc3C2=O)OCCCN2C(=O)c3ccccc3C2=O)c(C)c2c1OC(C)(C)CC2`, the GI50 with OVCAR-5 was determined as 52.5 µM; with IGROV-1, 3.27 µM.

Regarding `Cc1c(C)c(S(=O)(=O)N(CCCCCCN2C(=O)c3ccccc3C2=O)OCCCN2C(=O)c3ccccc3C2=O)c(C)c2c1OC(C)(C)CC2`, the GI50 with OVCAR-5 was found to be 52.5 µM; in the assay on IGROV-1, 3.27 µM.

The values above are taken from ChEMBL document CHEMBL1133028, “The synthesis and in vitro cytotoxic studies of novel oxa-spermidine derivatives and homologues” (2000).
